Experimental data: patent US11850220B2 (Augusta University Research Institute, Inc., priority 2020, dated 2023)

Columns and labels:
[1] = system: carrageenan-induced paw edema; test: carrageenan-induced paw edema technique (anti-inflammatory); format: in vivo; conditions: for Observed (1/property): 1/(% inhibition of edema thickness at 3 h effect); as to Observed (1/property): test concentration or dose not given here; as to Potency (% Inhibition relative to indomethacin at 3 h effect): test concentration or dose not given here
Excerpt: Anti-inflammatory properties of the ibuprofen-amino acid conjugate (5a-j) and ibuprofen-amino acid-4-aminophenol conjugates 7a-j were studied by the standard carrageenan-induced paw edema technique (Naumov, R. N. et al., Bioorg. Med. Chem. Lett. 2015, 25, 2314-2320; Tiwari, A. D. et al., Org. Biomol. Chem. 2014, 12, 7238-7249).

animal gastric mucosa = test: ulcerogenic liability; format: in vivo; conditions: in vivo
[2] = system: acetic acid-induced abdominal writhing; test: acetic acid-induced abdominal writhing technique (peripheral analgesic); format: in vivo; conditions: for Potency: Relative to indomethacin; for % Inhibition/protection / Writing reflex ± SEM: in vivo; as to % Inhibition/protection: test concentration or dose not given here; as to Writing reflex ± SEM: test concentration or dose not given here
hot plate = hot plate technique (central analgesic); format: in vivo; conditions: for Potency: Relative to indomethacin at 120 min.
COX-1 = COX-1 (Homo sapiens, UniProt P23219); test: COX-1/2 bio-assay: COX-1; format: biochemical; conditions: read-out: IC50 ± SD, COX-1
COX-1, sequence (P23219 24-599): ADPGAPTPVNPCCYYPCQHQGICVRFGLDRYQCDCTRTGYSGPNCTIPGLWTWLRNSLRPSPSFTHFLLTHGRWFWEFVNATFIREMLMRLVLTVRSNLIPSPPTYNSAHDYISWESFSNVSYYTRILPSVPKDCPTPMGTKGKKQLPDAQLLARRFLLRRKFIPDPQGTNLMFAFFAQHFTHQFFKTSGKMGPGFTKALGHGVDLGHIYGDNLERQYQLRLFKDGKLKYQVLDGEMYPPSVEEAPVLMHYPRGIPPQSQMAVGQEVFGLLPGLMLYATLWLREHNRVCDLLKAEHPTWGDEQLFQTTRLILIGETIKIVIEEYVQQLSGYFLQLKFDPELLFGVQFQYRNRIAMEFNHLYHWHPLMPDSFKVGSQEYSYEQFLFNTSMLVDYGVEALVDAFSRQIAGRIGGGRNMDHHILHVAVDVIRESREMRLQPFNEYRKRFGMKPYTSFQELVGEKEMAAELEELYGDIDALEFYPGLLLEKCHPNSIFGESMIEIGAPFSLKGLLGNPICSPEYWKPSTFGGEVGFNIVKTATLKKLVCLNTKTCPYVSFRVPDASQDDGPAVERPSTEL
Excerpt: (§1) Cyclooxygenases (COX) are the key enzymes capable of the conversion of arachidonic acid to prostaglandins.

COX-2 = biological target: T1, COX-2 (Homo sapiens, UniProt P35354); test: COX-1/2 bio-assay: COX-2; format: biochemical; conditions: for IC50: read-out: IC50 ± SD, COX-2; for SI(COX-2/COX-1): selectivity index COX-2/COX-1
T1 sequence (P35354 18-604): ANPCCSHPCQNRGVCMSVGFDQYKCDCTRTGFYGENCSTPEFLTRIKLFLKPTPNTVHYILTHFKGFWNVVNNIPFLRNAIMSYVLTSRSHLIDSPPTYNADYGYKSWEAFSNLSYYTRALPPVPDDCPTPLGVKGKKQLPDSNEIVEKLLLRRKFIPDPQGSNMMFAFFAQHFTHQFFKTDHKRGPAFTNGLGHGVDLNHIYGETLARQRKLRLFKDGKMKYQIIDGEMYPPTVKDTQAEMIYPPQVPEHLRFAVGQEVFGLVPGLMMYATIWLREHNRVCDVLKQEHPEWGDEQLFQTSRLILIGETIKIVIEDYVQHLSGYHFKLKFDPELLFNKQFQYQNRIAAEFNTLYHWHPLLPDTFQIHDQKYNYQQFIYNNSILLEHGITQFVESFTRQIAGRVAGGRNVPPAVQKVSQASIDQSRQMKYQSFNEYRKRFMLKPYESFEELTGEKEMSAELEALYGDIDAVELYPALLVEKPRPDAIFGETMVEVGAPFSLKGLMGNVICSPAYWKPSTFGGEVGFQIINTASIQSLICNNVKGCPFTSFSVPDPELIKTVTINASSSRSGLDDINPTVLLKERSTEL
Excerpt: as §1

[3] = % inhibition of edema thickness at 3 h effect, Table 7
[4] = anti-inflammatory property (% inhibition of edema at 3 h), Table 8

Compound	Observed (1/property) ([1]; Table 7)	% inhibition of edema ([1]; 1 h) [%]	Mean edema thickness ([1]; 1 h) [mm]	% inhibition of edema ([1]; 2 h) [%]	Mean edema thickness ([1]; 2 h) [mm]	% inhibition of edema ([1]; 3 h) [%]	Mean edema thickness ([1]; 3 h) [mm]	% inhibition of edema ([1]; 4 h) [%]	Mean edema thickness ([1]; 4 h) [mm]	% inhibition of edema ([1]; 24 h) [%]	Mean edema thickness ([1]; 24 h) [mm]	Observed property [1, 3] [%]	Observed property [1, 4] [%]	Potency (% Inhibition relative to indomethacin at 3 h effect) [1] [%]	% Incidence of ulcer divided by 10 (animal gastric mucosa)	Average of ulcer number (animal gastric mucosa)	Average severity of ulcer (animal gastric mucosa)	Number of animals with ulcer (animal gastric mucosa)	Ulcer index (animal gastric mucosa)	Potency [2]	other results
CC(C)Cc1ccc(C(C)C(=O)N[C@@H](CCC(N)=O)C(=O)Nc2ccc(O)cc2)cc1 (stereo partly drawn) [Compound 7j, (2S)—N1-(4-Hydroxyphenyl)-2-(2-(4-isobutylphenyl)propanamido)pentanediamide]	0.01282	55	0.55 ± 0.04	71	0.44 ± 0.02	78	0.28 ± 0.01	47	0.66 ± 0.03	32	0.13 ± 0.03	78	78	98	0	0	0	0	0	34	% Inhibition/protection [2]: 18.8%; Writing reflex ± SEM [2]: 79.0 ± 1.8; % protection (hot plate; After 30 min.): (60.7) %; Latency period ± SEM (hot plate; After 30 min.): 3.89 ± 0.03 s; % protection (hot plate; After 60 min.): (64.6) %; Latency period ± SEM (hot plate; After 60 min.): 3.67 ± 0.02 s; % protection (hot plate; After 90 min.): (74.5) %; Latency period ± SEM (hot plate; After 90 min.): 3.84 ± 0.15 s; % protection (hot plate; After 120 min.): (124.7) %; Latency period ± SEM (hot plate; After 120 min.): 4.92 ± 0.07 s; Potency (hot plate): 220; IC50 (COX-1): 8.29 ± 0.41 µM; IC50 (COX-2): 116 ± 8.23 µM; SI(COX-2/COX-1) (COX-2): 14.0
CC(C)Cc1ccc(C(C)C(=O)N[C@H](C(=O)Nc2ccc(O)cc2)C(C)C)cc1 (stereo partly drawn) [Compound 7h, (2S)-N-(4-Hydroxyphenyl)-2-(2-(4-isobutylphenyl)propanamido)-3-methylbutanamide]	0.01333	11	1.09 ± 0.06	54	0.69 ± 0.05	75	0.32 ± 0.03	48	0.65 ± 0.04	21	0.15 ± 0.03	75	75	94	0	0	0	0	0	137	% Inhibition/protection [2]: 75.3%; Writing reflex ± SEM [2]: 24.0 ± 0.4; % protection (hot plate; After 30 min.): (58.3) %; Latency period ± SEM (hot plate; After 30 min.): 3.83 ± 0.02 s; % protection (hot plate; After 60 min.): (62.3) %; Latency period ± SEM (hot plate; After 60 min.): 3.62 ± 0.03 s; % protection (hot plate; After 90 min.): (58.6) %; Latency period ± SEM (hot plate; After 90 min.): 3.49 ± 0.18 s; % protection (hot plate; After 120 min.): (50.7) %; Latency period ± SEM (hot plate; After 120 min.): 3.30 ± 0.02 s; Potency (hot plate): 90; IC50 (COX-1): 10.4 ± 0.51 µM; IC50 (COX-2): 133 ± 9.4 µM; SI(COX-2/COX-1) (COX-2): 12.8; melting point: 202.2 °C
CC[C@H](C)[C@@H](NC(=O)C(C)c1ccc(CC(C)C)cc1)C(=O)Nc1ccc(O)cc1 (stereo partly drawn) [Compound 7f]	0.01111	42	0.71 ± 0.01	48	0.79 ± 0.04	90	0.13 ± 0.02	16	1.05 ± 0.05	42	0.11 ± 0.02	90	90	113	0	0	0	0	0	155	% Inhibition/protection [2]: 85.3%; Writing reflex ± SEM [2]: 14.3 ± 0.8; % protection (hot plate; After 30 min.): (64.5) %; Latency period ± SEM (hot plate; After 30 min.): 3.98 ± 0.06 s; % protection (hot plate; After 60 min.): (74.0) %; Latency period ± SEM (hot plate; After 60 min.): 3.88 ± 0.02 s; % protection (hot plate; After 90 min.): (76.4) %; Latency period ± SEM (hot plate; After 90 min.): 3.88 ± 0.04 s; % protection (hot plate; After 120 min.): (164.4) %; Latency period ± SEM (hot plate; After 120 min.): 5.79 ± 0.04 s; Potency (hot plate): 290; potency, central analgesic properties (hot plate; in vivo): 2.9 folds of indomethacin; IC50 (COX-1): 4.86 ± 0.24 µM; IC50 (COX-2): 141 ± 11.1 µM; SI(COX-2/COX-1) (COX-2): 29.0; melting point: 205 °C
